# “And” between values parts separate entries of the source, which are not always exact repeats. Identical values can stand only once. Counter-ions that a name gives are not always drawn.
# Experiment: RP-HPLC retention on XTerra RP18, methanol/buffer; extrapolated retention factor log kw and slope S
# Type: physicochemical
# Conditions: pH 4.4; intercept, extrapolated to 100 % buffer; methanol/buffer, 25 °C
# Method: All measurements were performed at 25°C with a constant flow rate of 0.8 mL min^-1 and UV detection in the range of 200-280 nm. The injection volume was 20 μL. […] The retention factor k was calculated for each mobile phase composition according to Equation (1):
# where tr is the retention time of the tested compound and t0 is the dead volume measured with KNO3 as a non-retentive marker. The values corresponding to 100 % of the buffered eluent (log kw) were determined by extrapolation according to Equation (2):
# where log kw is the intercept, S is the slope of the regression line, and φ is the volume fraction of the organic modifier in the mobile phase.
# The retention behaviour in HPLC system was monitored by calculating extrapolated retention factors log kw corresponding to pure buffer as mobile phase.
row,SMILES,log kw
1,"Clc1ccc2nsnc2c1NC1=NCCN1 [Tizanidine, tizanidine hydrochloride]",0.74 ± 0.02
2,"C[C@@H]1CCC[C@H](C)N1NC(=O)c1ccc(Cl)c(S(N)(=O)=O)c1 [Clopamide, clopamide]",2.00 ± 0.02
3,"Cc1cc(C(C)(C)C)c(O)c(C)c1CC1=NCCN1 [Oxymetazoline, oxymetazoline hydrochloride]",2.33 ± 0.02
4,"N=C(N)NC(=O)Cc1c(Cl)cccc1Cl [Guanfacine, guanfacine hydrochloride]",1.73 ± 0.01

# Same assay, conditions: pH 4.4; slope of log k vs methanol volume fraction
row,SMILES,S (slope)
1,"Clc1ccc2nsnc2c1NC1=NCCN1 [Tizanidine, tizanidine hydrochloride]",-2.65 ± 0.06
2,"C[C@@H]1CCC[C@H](C)N1NC(=O)c1ccc(Cl)c(S(N)(=O)=O)c1 [Clopamide, clopamide]",-3.61 ± 0.04
3,"Cc1cc(C(C)(C)C)c(O)c(C)c1CC1=NCCN1 [Oxymetazoline, oxymetazoline hydrochloride]",-3.89 ± 0.04
4,"N=C(N)NC(=O)Cc1c(Cl)cccc1Cl [Guanfacine, guanfacine hydrochloride]",-3.47 ± 0.03

# Same assay, conditions: pH 7.4; intercept, extrapolated to 100 % buffer; methanol/buffer, 25 °C
row,SMILES,log kw
1,"Clc1ccc2nsnc2c1NC1=NCCN1 [Tizanidine, tizanidine hydrochloride]",1.12 ± 0.01
2,"C[C@@H]1CCC[C@H](C)N1NC(=O)c1ccc(Cl)c(S(N)(=O)=O)c1 [Clopamide, clopamide]",1.99 ± 0.03
3,"Cc1cc(C(C)(C)C)c(O)c(C)c1CC1=NCCN1 [Oxymetazoline, oxymetazoline hydrochloride]",2.33 ± 0.04
4,"N=C(N)NC(=O)Cc1c(Cl)cccc1Cl [Guanfacine, guanfacine hydrochloride]",1.92 ± 0.12

# Same assay, conditions: pH 7.4; slope of log k vs methanol volume fraction
row,SMILES,S (slope)
1,"Clc1ccc2nsnc2c1NC1=NCCN1 [Tizanidine, tizanidine hydrochloride]",-2.23 ± 0.03
2,"C[C@@H]1CCC[C@H](C)N1NC(=O)c1ccc(Cl)c(S(N)(=O)=O)c1 [Clopamide, clopamide]",-3.59 ± 0.08
3,"Cc1cc(C(C)(C)C)c(O)c(C)c1CC1=NCCN1 [Oxymetazoline, oxymetazoline hydrochloride]",-3.61 ± 0.10
4,"N=C(N)NC(=O)Cc1c(Cl)cccc1Cl [Guanfacine, guanfacine hydrochloride]",-3.21 ± 0.03

# Same assay, conditions: pH 9.1; intercept, extrapolated to 100 % buffer; methanol/buffer, 25 °C
row,SMILES,log kw
1,"Clc1ccc2nsnc2c1NC1=NCCN1 [Tizanidine, tizanidine hydrochloride]",1.34 ± 0.01
2,"C[C@@H]1CCC[C@H](C)N1NC(=O)c1ccc(Cl)c(S(N)(=O)=O)c1 [Clopamide, clopamide]",1.87 ± 0.01
3,"Cc1cc(C(C)(C)C)c(O)c(C)c1CC1=NCCN1 [Oxymetazoline, oxymetazoline hydrochloride]",2.60 ± 0.07
4,"N=C(N)NC(=O)Cc1c(Cl)cccc1Cl [Guanfacine, guanfacine hydrochloride]",2.00 ± 0.00

# Same assay, conditions: pH 9.1; slope of log k vs methanol volume fraction
row,SMILES,S (slope)
1,"Clc1ccc2nsnc2c1NC1=NCCN1 [Tizanidine, tizanidine hydrochloride]",-2.63 ± 0.04
2,"C[C@@H]1CCC[C@H](C)N1NC(=O)c1ccc(Cl)c(S(N)(=O)=O)c1 [Clopamide, clopamide]",-3.34 ± 0.02
3,"Cc1cc(C(C)(C)C)c(O)c(C)c1CC1=NCCN1 [Oxymetazoline, oxymetazoline hydrochloride]",-4.14 ± 0.16
4,"N=C(N)NC(=O)Cc1c(Cl)cccc1Cl [Guanfacine, guanfacine hydrochloride]",-3.35 ± 0.01

# Experiment: Capillary electrophoresis, effective electrophoretic mobility (acetone as EOF marker)
# Type: physicochemical
# Conditions: pH 4.4
# Method: All experiments were performed using the SpectraPhoresis 500-capillary electrophoresis system (Spectra Physics Analytical, USA) with UV detector. Data were recorded and analyzed using ChromQuest software version 4.0 (Thermo Finnigan, USA).
# The separations were performed with an uncoated fused capillary (total length 31.5 cm, 50 μm id, effective length 24 cm, Polymicro Technologies, USA) applying a voltage of 11 kV and at 25 °C. The samples were injected hydrodynamically and detection was performed in the 200-280 nm range. The new capillary was rinsed stepwise with 0.1 M NaOH (15 min), water (10 min) and a running buffer (10 min). Finally, a 10 min high voltage was applied through the background electrolyte-filled capillary to equalize the inner surface, stabilize the electroosmotic flow and ensure good reproducibility of injections from run to run. […] Between runs, the capillary was rinsed with the background electrolyte for 1 minute.
# where Lt is the total length of the capillary (cm), Leff is the effective length of the capillary (cm), U is the applied voltage (V), tm is the migration time of the analyte (s) and teof is the migration time of the electroneutral EOF marker acetone (s). The calculated μeff values (μeff4.4, μeff7.4 and μeff9.1) were used as dependent variables in QSMR analysis.
row,SMILES,μeff4.4 (effective electrophoretic mobility)
1,"C[C@@H]1CCC[C@H](C)N1NC(=O)c1ccc(Cl)c(S(N)(=O)=O)c1 [Clopamide, clopamide]",0 10^-5 cm^2 / V s and 0.000 ± 0.000 10^-5 cm^2 / V s

# Same assay, conditions: pH 4.4; I = 25 mmol/L, 11 kV, 25 °C, three replicates
row,SMILES,µeff4.4
1,"Clc1ccc2nsnc2c1NC1=NCCN1 [Tizanidine, tizanidine hydrochloride]",24.770 ± 0.035 10^-5 cm^2 V^-1 s^-1
2,"C[C@@H]1CCC[C@H](C)N1NC(=O)c1ccc(Cl)c(S(N)(=O)=O)c1 [Clopamide, clopamide]",0.000 ± 0.000 10^-5 cm^2 V^-1 s^-1
3,"Cc1cc(C(C)(C)C)c(O)c(C)c1CC1=NCCN1 [Oxymetazoline, oxymetazoline hydrochloride]",20.276 ± 0.040 10^-5 cm^2 V^-1 s^-1
4,"N=C(N)NC(=O)Cc1c(Cl)cccc1Cl [Guanfacine, guanfacine hydrochloride]",24.242± 0.002 10^-5 cm^2 V^-1 s^-1

# Same assay, conditions: pH 7.4
row,SMILES,"μeff7.4 (effective electrophoretic mobility, text)"
1,"C[C@@H]1CCC[C@H](C)N1NC(=O)c1ccc(Cl)c(S(N)(=O)=O)c1 [Clopamide, clopamide]",zero
2,"N=C(N)NC(=O)Cc1c(Cl)cccc1Cl [Guanfacine, guanfacine hydrochloride]",5.083 ± 0.025 10^-5 cm^2 / V s

# Same assay, conditions: pH 7.4; I = 25 mmol/L, 11 kV, 25 °C, three replicates
row,SMILES,µeff7.4
1,"Clc1ccc2nsnc2c1NC1=NCCN1 [Tizanidine, tizanidine hydrochloride]",12.077 ± 0.042 10^-5 cm^2 V^-1 s^-1
2,"C[C@@H]1CCC[C@H](C)N1NC(=O)c1ccc(Cl)c(S(N)(=O)=O)c1 [Clopamide, clopamide]",0.000 ± 0.000 10^-5 cm^2 V^-1 s^-1
3,"Cc1cc(C(C)(C)C)c(O)c(C)c1CC1=NCCN1 [Oxymetazoline, oxymetazoline hydrochloride]",19.061 ± 0.049 10^-5 cm^2 V^-1 s^-1
4,"N=C(N)NC(=O)Cc1c(Cl)cccc1Cl [Guanfacine, guanfacine hydrochloride]",5.083 ± 0.025 10^-5 cm^2 V^-1 s^-1

# Same assay, conditions: pH 7.4; listed as clopamide
row,SMILES,"μeff7.4 (effective electrophoretic mobility, text)"
1,"C[C@@H]1CCC[C@H](C)N1NC(=O)c1ccc(Cl)c(S(N)(=O)=O)c1 [Clopamide, clopamide]",0 10^-5 cm^2 / V s

# Same assay, conditions: pH 9.1
row,SMILES,μeff9.1 (effective electrophoretic mobility)
1,"Clc1ccc2nsnc2c1NC1=NCCN1 [Tizanidine, tizanidine hydrochloride]",zero
2,"C[C@@H]1CCC[C@H](C)N1NC(=O)c1ccc(Cl)c(S(N)(=O)=O)c1 [Clopamide, clopamide]",negative values of effective mobility
3,"N=C(N)NC(=O)Cc1c(Cl)cccc1Cl [Guanfacine, guanfacine hydrochloride]",zero

# Same assay, conditions: pH 9.1; I = 25 mmol/L, 11 kV, 25 °C, three replicates
row,SMILES,µeff9.1
1,"Clc1ccc2nsnc2c1NC1=NCCN1 [Tizanidine, tizanidine hydrochloride]",0.000 ± 0.000 10^-5 cm^2 V^-1 s^-1
2,"C[C@@H]1CCC[C@H](C)N1NC(=O)c1ccc(Cl)c(S(N)(=O)=O)c1 [Clopamide, clopamide]",-9.640 ± 0.053 10^-5 cm^2 V^-1 s^-1
3,"Cc1cc(C(C)(C)C)c(O)c(C)c1CC1=NCCN1 [Oxymetazoline, oxymetazoline hydrochloride]",19.556 ± 0.076 10^-5 cm^2 V^-1 s^-1
4,"N=C(N)NC(=O)Cc1c(Cl)cccc1Cl [Guanfacine, guanfacine hydrochloride]",0.000 ± 0.000 10^-5 cm^2 V^-1 s^-1

# Experiment: not given
# Conditions: pH spectrophotometric; ref 13 (Supplement reference list); cited from earlier work
row,SMILES,pKa experimental
1,"Cc1cc(C(C)(C)C)c(O)c(C)c1CC1=NCCN1 [Oxymetazoline, oxymetazoline hydrochloride]",10.62
